In ChEMBL document CHEMBL1130453, “Synthesis and biological activity of a new anti-factor Xa pentasaccharide with a C-interglycosidic bond” (Bioorg Med Chem Lett, 1997) one finds Kd and Anti-Factor Xa activity data, which are given here for two molecules.

One experiment has as its target Antithrombin-III (Homo sapiens, UniProt P01008). The experiment is described as follows: In vitro binding affinity against antithrombin III (AT III) was determined by fluorescence spectroscopy.
Experiment [1] addresses Coagulation factor X (Homo sapiens) (UniProt P00742). The experiment is described as follows: Anti-factor Xa activity by amidolytic method.

Sequence of Coagulation factor X (Homo sapiens) (P00742 41-179 limits assumed): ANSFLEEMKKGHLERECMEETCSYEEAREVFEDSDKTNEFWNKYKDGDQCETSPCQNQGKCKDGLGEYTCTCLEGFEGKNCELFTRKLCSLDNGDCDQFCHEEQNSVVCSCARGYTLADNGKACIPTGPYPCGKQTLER
Sequence of Coagulation factor X (Homo sapiens) (P00742 235-488 limits assumed): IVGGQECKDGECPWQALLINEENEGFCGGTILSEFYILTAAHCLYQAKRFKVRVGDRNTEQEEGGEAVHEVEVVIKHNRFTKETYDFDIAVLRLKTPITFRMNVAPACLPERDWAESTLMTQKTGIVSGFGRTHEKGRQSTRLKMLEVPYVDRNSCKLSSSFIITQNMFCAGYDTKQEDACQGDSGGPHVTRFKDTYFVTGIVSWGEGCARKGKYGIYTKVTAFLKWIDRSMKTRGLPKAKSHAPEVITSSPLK
Sequence of Antithrombin-III (P01008 whole entry): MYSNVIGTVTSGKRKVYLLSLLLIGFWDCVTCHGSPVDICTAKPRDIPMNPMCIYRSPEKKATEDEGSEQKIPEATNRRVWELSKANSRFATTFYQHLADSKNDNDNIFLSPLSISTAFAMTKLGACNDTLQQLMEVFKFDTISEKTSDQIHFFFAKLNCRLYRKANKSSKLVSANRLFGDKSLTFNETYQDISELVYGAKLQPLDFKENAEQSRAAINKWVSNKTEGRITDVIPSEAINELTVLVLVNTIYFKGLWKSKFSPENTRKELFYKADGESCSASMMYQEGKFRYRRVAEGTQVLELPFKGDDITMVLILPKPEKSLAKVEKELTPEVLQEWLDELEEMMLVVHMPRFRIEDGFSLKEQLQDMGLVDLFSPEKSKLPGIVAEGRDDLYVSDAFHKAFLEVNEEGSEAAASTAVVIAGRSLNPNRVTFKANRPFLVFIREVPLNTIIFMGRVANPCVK

By Kd is commonly meant the free concentration of one partner at which half of the binding sites on the other are occupied at equilibrium, for simple one-to-one binding. High values mean a looser complex, low ones a tighter complex. For `CO[C@H]1O[C@@H](COS(=O)(=O)O)[C@@H](O[C@@H]2O[C@@H](C(=O)O)[C@H](O[C@H]3O[C@@H](COS(=O)(=O)O)[C@@H](O[C@@H]4O[C@@H](C(=O)O)[C@@H](C[C@H]5O[C@@H](COS(=O)(=O)O)[C@@H](OC)[C@H](OC)[C@@H]5OC)[C@H](OC)[C@@H]4OC)[C@H](OS(=O)(=O)O)[C@@H]3OS(=O)(=O)O)[C@H](OC)[C@H]2OC)[C@H](OS(=O)(=O)O)[C@@H]1OS(=O)(=O)O`, the Kd on Antithrombin-III is 2.8 nM. This molecule also gave an Anti-Factor Xa activity in experiment [1] of 880 U/mg.
Regarding `CO[C@H]1O[C@@H](COS(=O)(=O)O)[C@@H](O[C@@H]2O[C@@H](C(=O)O)[C@H](O[C@H]3O[C@@H](COS(=O)(=O)O)[C@@H](O[C@@H]4O[C@@H](C(=O)O)[C@@H](O[C@H]5O[C@@H](COS(=O)(=O)O)[C@@H](OC)[C@H](OC)[C@@H]5OC)[C@H](OC)[C@@H]4OC)[C@H](OS(=O)(=O)O)[C@@H]3OS(=O)(=O)O)[C@H](OC)[C@H]2OC)[C@H](OS(=O)(=O)O)[C@@H]1OS(=O)(=O)O`, the Anti-Factor Xa activity in experiment [1] came to 1180 U/mg.
